Experiments:
Format in all cases: physicochemical
[1] = Fluorescence life time in ethanol; conditions: for Fluorescence life time (τFl): for Pheo 16 the longer component of a double exponential decay; for Fluorescence life time (τFl), second decay component: double exponential decay
[2] = Singlet oxygen quantum yield (photoinduced singlet oxygen) in ethanol; conditions: for singlet oxygen quantum yield (ΦA): in ethanol, before light exposure
Description: The quantum yield of the photoinduced singlet oxygen of Pheo (0.52) decreases to 0.05 for Pheo 16 (see Table 1).
(§1) They equal to the parameters of the free Pheo.

[3] = Release of Pheo from dendrimer complex by light exposure (MALDI); conditions: after 30 min light exposure with UV lamp (~1 kJ)
Description: as §1
However, this process occurs only in the presence of oxygen. Presumably, the primary generated singlet oxygen caused the separation of the bonds between the dye molecules and the dendrimer.

[4] = Fluorescence intensity in ethanol; conditions: versus fluorescence intensity of Pheo in ethanol
Description: The fluorescence spectra of al samples show nearly the same shape. However, the fluorescence intensity of Pheo 16 in ethanol is 50 times smaller than the fluorescence intensity of Pheo in ethanol (see FIG. 2).

## Pheophorbide a [reference compound]
[1]
  Fluorescence life time (τFl): 5.7 ± 0.2 ns
[1]; listed as Pheo
  Fluorescence life time (τFl): 5.7 ns
[2]
  singlet oxygen quantum yield (ΦA): 0.52

## Pheophorbide a-diaminobutane-polypropylene-imine Dendrimer 3.0 Complex [Pheo 16]
[3]
  release of Pheo on light exposure: release of Pheo
[1]; relation of amplitudes 2 to 1
  Fluorescence life time (τFl), second decay component: 0.5 ns
  fluorescence lifetime, first component of double exponential decay: 4.5 ns
[1]; relation of amplitudes 2 to 1, listed as Pheo-16-dendrimer complex
  Fluorescence life time (τFl), second decay component: 0.5 ± 0.3 ns
[1]
  Fluorescence life time (τFl): 4.9 ± 0.3 ns
[4]
  fluorescence intensity relative to Pheo: 50 times smaller
[2]; after light exposure of a 3 ml sample with 40 J and 514 nm
  singlet oxygen quantum yield after light exposure: 0.47
[2]
  singlet oxygen quantum yield (ΦA): 0.05

## C=Cc1c(C)c2cc3nc(c4c5[nH]c(cc6nc(cc1[nH]2)C(C)=C6CC)c(C)c5C(=O)[C@@H]4C(=O)OC)[C@@H](CCC(=O)ON1C(=O)CCC1=O)[C@@H]3C [Pheo-succinimide ester, pheophorbide a-succinimide ester]
[1]
  Fluorescence life time (τFl): 6.1 ± 0.3 ns
[2]
  singlet oxygen quantum yield (ΦA): 0.55

From patent publication US20060292112A1, “Dendrimer-photosensitizer complexes for medical applications” (priority 1999, published 2006)
